Assay results: patent publication US7432045B2 (priority 2003, dated 2008)
pEC50, pIC50: −log10 of the molar value. Read-outs that look alike come from different tables or passages of the source. Peptide text beside a SMILES is read from it.

Assays:
[1] = target: T1, trypsin (Sus scrofa, UniProt P00761); assay: Trypsinization of peptides; conditions: 0.005 or 0.01% trypsin, 1 h at 37° C.
T1 construct: purchased BioWhittaker 17-160E
Experimental: Trypsinization of peptides: Peptides dissolved in serum-free DMEM were exposed to 0.005 or 0.01% trypsin for 1 h at 37° C. The trypsin was then inactivated with a 1.3-fold molar excess of soybean trypsin inhibitor and the ability of the peptides to inactivate virions was tested as described above (centrifugation assay). In controls, trypsin was inactivated before it was added to the peptides.
In Panel B, peptides in serum-free medium were pre-treated with active trypsin (open bars) or inactivated trypsin (shaded bars) for 1 h at 37° C. before they were added to virions for 1 h at 37° C. (see Example 1). The treated virions were then pelleted and resuspended in serum-supplemented medium and assayed for infectivity without further trypsinization. The peptide concentrations were as high or higher than those used in Panel A: […] TAT-C, 50 μM bKLA, 200 μM EB and bHOM-9. Trypsin concentrations used in both Panels A and B, were 0.005% (for bKLA, EB and bHOM-9) or 0.01% (for TAT-C and the ‘no peptide’ control).

[2] = test system: HSV-1 KOS; conditions: depending on concentration
[3] = test system: Vero cells
[4] = test system: HSV-1 KOS mutant hrR3; conditions: 25 μM peptide
[5] = test system: MDCK cells
[6] = test system: H5 Avian Influenza virus; conditions: dog
[7] = test system: hrR3; conditions: read-out: IC50, infection in presence of peptide with peptide treated virions
[8] = MTS assay, eight cell lines; conditions: Vero, HeLa, CV-1PD, TM-1, DP-9, NIKS and W12E cells
[9] = test system: HSV-1 KOS mutant hrR3; assay: Inactivation of pre-adsorbed virus (virus inactivation); assay type: cell-based
[10] = test system: hrR3 virions; assay: Inactivation of virions in solution; assay type: cell-based, HSV-1; conditions: 37° C.
Experimental: Inactivation of virions: To assess the ability of peptides to inactivate virions, 3-4×10^6 pfu/mL of virus was mixed on ice with peptide in serum-free DMEM and incubated for 1 h at 4 or 37° C. Aliquots (10 μL) were diluted 1000-fold into peptide-free serum-supplemented DMEM at 23° C. and 50 μL aliquots were assayed in triplicate for infectivity in Vero cell cultures (dilution assay). Alternatively, 10 μL aliquots were diluted into 1 mL of ice-cold peptide-free serum-supplemented DMEM and the virus was pelleted as described above (centrifugation assay). Viral pellets were then resuspended in 250 μL serum-supplemented DMEM and 50 μL aliquots were assayed in triplicate for infectivity in Vero cell cultures.
Some of the virus diluted without the addition of NaCl was pelleted immediately (Control), while the rest of the diluted virus was stored at 4° C. and pelleted 19 h later. The virus was pelleted and assayed for infectivity as described in Example 1.

[11] = test system: HSV-1 KOS mutant hrR3

T1 sequence (P00761 9-231): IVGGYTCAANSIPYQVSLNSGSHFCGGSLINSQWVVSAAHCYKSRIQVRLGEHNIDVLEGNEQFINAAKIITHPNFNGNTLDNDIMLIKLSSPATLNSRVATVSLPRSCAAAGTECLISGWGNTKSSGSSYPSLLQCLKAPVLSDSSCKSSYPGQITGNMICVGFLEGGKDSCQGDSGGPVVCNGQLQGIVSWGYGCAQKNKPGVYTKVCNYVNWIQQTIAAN

SMILES | effect of trypsinization of the peptide on its antiviral activity [1] | reduction of virus yields [2] | concentration at which cytotoxic effects were seen first [3] [µM] | cytotoxic effects (trypan blue) in cellular resistance experiments [3] | effect on development of lacZ+ cells when added immediately after citrate treatment [4] | cytotoxic effects (trypan blue staining) [5] | pIC50 [6] | pIC50 ([7]; cells pretreated with peptide) | pIC50 ([7]; non-pretreated cells) | pEC50 [8] | pIC50 ([9]; 33° C., read-out: Inactivation of Pre-Adsorbed Virus 33° C. IC50) | pIC50 ([9]; 33° C., read-out: Virus Inactivation IC50 (pre-adsorbed virus)) | pIC50 ([9]; 33° C., read-out: virus inactivation IC50) | pIC50 ([9]; 37° C., read-out: Inactivation of Pre-Adsorbed Virus 37° C. IC50) | pIC50 ([10]; dilution or centrifugation, read-out: inactivation of virions IC50) | pIC50 ([10]; read-out: Inactivation of Virions 37° C. IC50) | inhibitory effect after 1 h at 32° C. ([11]; 10 or 100 μM peptide) | virus internalized after cultures were rinsed and shifted to 37° C. ([11]; 10 or 100 μM peptide) | reversibility of the inhibitory effect after removal of peptide ([11]; n50,51TAT-C 10 μM, TAT-C 10 or 100 μM)
CC(C)C[C@H](NC(=O)[C@H](C)NC(=O)[C@H](CC(C)C)NC(=O)[C@H](CC(C)C)NC(=O)[C@@H](NC(=O)[C@H](C)NC(=O)[C@@H]1CCCN1C(=O)[C@H](CC(C)C)NC(=O)[C@H](CC(C)C)NC(=O)[C@H](C)NC(=O)[C@@H](NC(=O)[C@H](C)NC(=O)[C@H](C)NC(=O)[C@H](CCCCN)NC(=O)[C@H](CCCCN)NC(=O)[C@H](CCCNC(=N)N)NC(=O)[C@@H](N)CCCNC(=N)N)C(C)C)C(C)C)C(=O)N[C@@H](CC(C)C)C(=O)N[C@@H](C)C(=O)N1CCC[C@H]1C(=O)O [EB] (H-RRKKAAVALLPAVLLALLAP-OH) | completely abolished their antiviral activity | up to eight orders of magnitude | 200 | No cytotoxic effects | no longer had any effect | No cytotoxic effects | 6.30 | 6.05 | 5.77 | < 4.00 | – | – | – | – | – | – | – | – | –
N=C(N)NCCC[C@H](NC(=O)CN)C(=O)N[C@@H](CCCCN)C(=O)N[C@@H](CCCCN)C(=O)N[C@@H](CCCNC(=N)N)C(=O)N[C@@H](CCCNC(=N)N)C(=O)N[C@@H](CCC(N)=O)C(=O)N[C@@H](CCCNC(=N)N)C(=O)N[C@@H](CCCNC(=N)N)C(=O)N[C@@H](CCCNC(=N)N)C(=O)N[C@@H](CS)C(=O)O [TAT-C, NH2-GRKKRRQRRRC-COOH] | completely abolished their antiviral activity | – | – | – | – | – | – | – | – | – | 4.96 | 4.96 | 4.96 | 5.28 | ~4.12 | 4.00 | about 90% | 25-33% | largely irreversible
